Measured values from the NIST ThermoML archive (doi:10.1021/je0202073).
± gives the expanded uncertainty stated by the source.

Legend:
[1] = excess molar enthalpy (molar enthalpy of mixing); xn = mol fraction of the nth substance listed; conditions: 101.3 kPa, Liquid, Calvet calorimetry
[2] = xn = mol fraction of the nth substance listed; conditions: 101.3 kPa, Liquid

SMILES: CCOC=O [ethyl methanoate] + CC(C)(C)O
- excess molar enthalpy ([1]; 299.15 K, x1 = 0.0689): 0.141 ± 0.00359 kcal/mol
- excess molar enthalpy ([1]; 299.15 K, x1 = 0.1401): 0.254 ± 0.0043 kcal/mol
- excess molar enthalpy ([1]; 299.15 K, x1 = 0.2146): 0.354 ± 0.00502 kcal/mol
- excess molar enthalpy ([1]; 299.15 K, x1 = 0.2869): 0.43 ± 0.00574 kcal/mol
- excess molar enthalpy ([1]; 299.15 K, x1 = 0.3549): 0.478 ± 0.00598 kcal/mol
- excess molar enthalpy ([1]; 299.15 K, x1 = 0.4172): 0.506 ± 0.00621 kcal/mol
- excess molar enthalpy ([1]; 299.15 K, x1 = 0.4738): 0.518 ± 0.00645 kcal/mol
- excess molar enthalpy ([1]; 299.15 K, x1 = 0.5242): 0.517 ± 0.00645 kcal/mol
- excess molar enthalpy ([1]; 299.15 K, x1 = 0.5696): 0.515 ± 0.00645 kcal/mol
- excess molar enthalpy ([1]; 299.15 K, x1 = 0.571): 0.511 ± 0.00645 kcal/mol
- excess molar enthalpy ([1]; 299.15 K, x1 = 0.6322): 0.489 ± 0.00621 kcal/mol
- excess molar enthalpy ([1]; 299.15 K, x1 = 0.6996): 0.447 ± 0.00574 kcal/mol
- excess molar enthalpy ([1]; 299.15 K, x1 = 0.7701): 0.384 ± 0.00526 kcal/mol
- excess molar enthalpy ([1]; 299.15 K, x1 = 0.8357): 0.301 ± 0.00454 kcal/mol
- excess molar enthalpy ([1]; 299.15 K, x1 = 0.8964): 0.213 ± 0.0043 kcal/mol
- excess molar enthalpy ([1]; 299.15 K, x1 = 0.9485): 0.108 ± 0.0043 kcal/mol
- excess molar enthalpy ([1]; 318.15 K, x1 = 0.0612): 0.124 ± 0.00335 kcal/mol
- excess molar enthalpy ([1]; 318.15 K, x1 = 0.1263): 0.219 ± 0.00406 kcal/mol
- excess molar enthalpy ([1]; 318.15 K, x1 = 0.2016): 0.326 ± 0.00478 kcal/mol
- excess molar enthalpy ([1]; 318.15 K, x1 = 0.2725): 0.4 ± 0.00526 kcal/mol
- excess molar enthalpy ([1]; 318.15 K, x1 = 0.3389): 0.443 ± 0.00574 kcal/mol
- excess molar enthalpy ([1]; 318.15 K, x1 = 0.3986): 0.471 ± 0.00598 kcal/mol
- excess molar enthalpy ([1]; 318.15 K, x1 = 0.4509): 0.485 ± 0.00598 kcal/mol
- excess molar enthalpy ([1]; 318.15 K, x1 = 0.4911): 0.489 ± 0.00598 kcal/mol
- excess molar enthalpy ([1]; 318.15 K, x1 = 0.511): 0.49 ± 0.00598 kcal/mol
- excess molar enthalpy ([1]; 318.15 K, x1 = 0.5304): 0.49 ± 0.00598 kcal/mol
- excess molar enthalpy ([1]; 318.15 K, x1 = 0.5696): 0.484 ± 0.00598 kcal/mol
- excess molar enthalpy ([1]; 318.15 K, x1 = 0.6207): 0.475 ± 0.00598 kcal/mol
- excess molar enthalpy ([1]; 318.15 K, x1 = 0.6806): 0.449 ± 0.00574 kcal/mol
- excess molar enthalpy ([1]; 318.15 K, x1 = 0.7292): 0.417 ± 0.0055 kcal/mol
- excess molar enthalpy ([1]; 318.15 K, x1 = 0.786): 0.37 ± 0.00502 kcal/mol
- excess molar enthalpy ([1]; 318.15 K, x1 = 0.8292): 0.322 ± 0.00478 kcal/mol
- excess molar enthalpy ([1]; 318.15 K, x1 = 0.8754): 0.261 ± 0.0043 kcal/mol
- excess molar enthalpy ([1]; 318.15 K, x1 = 0.9191): 0.192 ± 0.00454 kcal/mol
- excess molar enthalpy ([1]; 318.15 K, x1 = 0.9757): 0.0729 ± 0.0043 kcal/mol
- excess molar volume ([2]; 303.15 K, x1 = 0.0451): 1.65e-06 ± 9e-08 m3/mol
- excess molar volume ([2]; 303.15 K, x1 = 0.0901): 3.35e-06 ± 9e-08 m3/mol
- excess molar volume ([2]; 303.15 K, x1 = 0.1537): 5.06e-06 ± 9e-08 m3/mol
- excess molar volume ([2]; 303.15 K, x1 = 0.1973): 6.07e-06 ± 1e-07 m3/mol
- excess molar volume ([2]; 303.15 K, x1 = 0.2481): 7.02e-06 ± 1e-07 m3/mol
- excess molar volume ([2]; 303.15 K, x1 = 0.2631): 7.32e-06 ± 1e-07 m3/mol
- excess molar volume ([2]; 303.15 K, x1 = 0.3042): 7.9e-06 ± 1.1e-07 m3/mol
- excess molar volume ([2]; 303.15 K, x1 = 0.3255): 8.1e-06 ± 1.1e-07 m3/mol
- excess molar volume ([2]; 303.15 K, x1 = 0.3448): 8.3e-06 ± 1.1e-07 m3/mol
- excess molar volume ([2]; 303.15 K, x1 = 0.3957): 8.6e-06 ± 1.1e-07 m3/mol
- excess molar volume ([2]; 303.15 K, x1 = 0.4411): 8.73e-06 ± 1.1e-07 m3/mol
- excess molar volume ([2]; 303.15 K, x1 = 0.4445): 8.75e-06 ± 1.1e-07 m3/mol
- excess molar volume ([2]; 303.15 K, x1 = 0.4964): 8.79e-06 ± 1.1e-07 m3/mol
- excess molar volume ([2]; 303.15 K, x1 = 0.5013): 8.8e-06 ± 1.1e-07 m3/mol
- excess molar volume ([2]; 303.15 K, x1 = 0.5084): 8.78e-06 ± 1.1e-07 m3/mol
- excess molar volume ([2]; 303.15 K, x1 = 0.5344): 8.7e-06 ± 1.1e-07 m3/mol
- excess molar volume ([2]; 303.15 K, x1 = 0.5515): 8.64e-06 ± 1.1e-07 m3/mol
- excess molar volume ([2]; 303.15 K, x1 = 0.5677): 8.58e-06 ± 1.1e-07 m3/mol
- excess molar volume ([2]; 303.15 K, x1 = 0.5954): 8.35e-06 ± 1.1e-07 m3/mol
- excess molar volume ([2]; 303.15 K, x1 = 0.6467): 7.94e-06 ± 1.1e-07 m3/mol
- excess molar volume ([2]; 303.15 K, x1 = 0.6956): 7.42e-06 ± 1e-07 m3/mol
- excess molar volume ([2]; 303.15 K, x1 = 0.7432): 6.59e-06 ± 1e-07 m3/mol
- excess molar volume ([2]; 303.15 K, x1 = 0.8016): 5.54e-06 ± 9e-08 m3/mol
- excess molar volume ([2]; 303.15 K, x1 = 0.8477): 4.63e-06 ± 9e-08 m3/mol
- excess molar volume ([2]; 303.15 K, x1 = 0.9067): 3.28e-06 ± 8e-08 m3/mol
- excess molar volume ([2]; 303.15 K, x1 = 0.9465): 2.17e-06 ± 8e-08 m3/mol
- excess molar volume ([2]; 318.15 K, x1 = 0.1022): 4.09e-06 ± 9e-08 m3/mol
- excess molar volume ([2]; 318.15 K, x1 = 0.1289): 4.86e-06 ± 9e-08 m3/mol
- excess molar volume ([2]; 318.15 K, x1 = 0.232): 7.07e-06 ± 1e-07 m3/mol
- excess molar volume ([2]; 318.15 K, x1 = 0.2909): 7.96e-06 ± 1.1e-07 m3/mol
- excess molar volume ([2]; 318.15 K, x1 = 0.3356): 8.41e-06 ± 1.1e-07 m3/mol
- excess molar volume ([2]; 318.15 K, x1 = 0.4076): 8.97e-06 ± 1.2e-07 m3/mol
- excess molar volume ([2]; 318.15 K, x1 = 0.4696): 9.17e-06 ± 1.2e-07 m3/mol
- excess molar volume ([2]; 318.15 K, x1 = 0.4934): 9.19e-06 ± 1.2e-07 m3/mol
- excess molar volume ([2]; 318.15 K, x1 = 0.5055): 9.2e-06 ± 1.2e-07 m3/mol
- excess molar volume ([2]; 318.15 K, x1 = 0.5111): 9.19e-06 ± 1.2e-07 m3/mol
- excess molar volume ([2]; 318.15 K, x1 = 0.5267): 9.13e-06 ± 1.2e-07 m3/mol
- excess molar volume ([2]; 318.15 K, x1 = 0.536): 9.09e-06 ± 1.2e-07 m3/mol
- excess molar volume ([2]; 318.15 K, x1 = 0.5637): 8.91e-06 ± 1.1e-07 m3/mol
- excess molar volume ([2]; 318.15 K, x1 = 0.5859): 8.75e-06 ± 1.1e-07 m3/mol
- excess molar volume ([2]; 318.15 K, x1 = 0.639): 8.21e-06 ± 1.1e-07 m3/mol
- excess molar volume ([2]; 318.15 K, x1 = 0.6902): 7.6e-06 ± 1.1e-07 m3/mol
- excess molar volume ([2]; 318.15 K, x1 = 0.7388): 6.82e-06 ± 1e-07 m3/mol
- excess molar volume ([2]; 318.15 K, x1 = 0.7922): 5.79e-06 ± 9e-08 m3/mol
- excess molar volume ([2]; 318.15 K, x1 = 0.8429): 4.71e-06 ± 9e-08 m3/mol
- excess molar volume ([2]; 318.15 K, x1 = 0.8913): 3.45e-06 ± 8e-08 m3/mol
- excess molar volume ([2]; 318.15 K, x1 = 0.9414): 2.04e-06 ± 8e-08 m3/mol
